Experimental findings from patent US9090647B2, “Crystalline forms of rebaudioside B” (CARGILL, INCORPORATED, priority 2010, dated 2015) are described below.

Molecules are shown by their SMILES. Values after ≈ are worked out from the molar mass of the structure shown. Read-outs that look alike come from different tables or passages of the source.

The nature of this data set: Solubility of rebaudioside B crystal polymorphs by incremental addition to solvent in a temperature controlled stirred vessel, visual determination. The format is physicochemical. Particulars: for solubility in ethanol / solubility in water / solubility: 25° C.; for solubility: 25 °C, thermodynamic from solid. On the procedure:
The solubility of each of the four crystal polymorphs of rebaudioside B was determined in the following manner. Experiments were conducted using a known volume of solvent in a temperature controlled stirred vessel. The amount of solvent used was either 1 mL or 2 mL. Rebaudioside B was added to the solvent in the temperature controlled stirred vessel in 0.5 mg increments and held to visually determine if it dissolved. If the first 0.5 mg increment dissolved, another 0.5 mg increment was added and again held to visually determine if it dissolved. […] Each incremental addition of rebaudioside B was allowed a maximum of 1 hour to dissolve (if dissolution took place more quickly it was not necessary to wait the full 1 hour).

For the molecule `C=C1C[C@@]23CC[C@H]4[C@@](C)(CCC[C@@]4(C)C(=O)O)[C@@H]2CC[C@]1(O[C@@H]1O[C@H](CO)[C@@H](O)[C@H](O[C@@H]2O[C@H](CO)[C@@H](O)[C@H](O)[C@H]2O)[C@H]1O[C@@H]1O[C@H](CO)[C@@H](O)[C@H](O)[C@H]1O)C3` [Form 3, rebaudioside B], the “solubility in ethanol (in words)” value is listed as “moderate” and the solubility in ethanol result is reported as “about 10 mg/mL”. Further, where the note is “water”, the “solubility in water (in words)” value is on record as “low” and the solubility in water entry was “less than 0.5 mg/mL”.

With `C=C1C[C@@]23CC[C@H]4[C@@](C)(CCC[C@@]4(C)C(=O)O)[C@@H]2CC[C@]1(O[C@@H]1O[C@H](CO)[C@@H](O)[C@H](O[C@@H]2O[C@H](CO)[C@@H](O)[C@H](O)[C@H]2O)[C@H]1O[C@@H]1O[C@H](CO)[C@@H](O)[C@H](O)[C@H]1O)C3` [Form 2, rebaudioside B], the “solubility in ethanol (in words)” value was “low” and the solubility in ethanol result was “about 2.7 mg/mL”. Besides, for the setting “water”, the “solubility in water (in words)” value is reported as “low” and the solubility in water result is reported as “less than 0.5 mg/mL”.

Consider `C=C1C[C@@]23CC[C@H]4[C@@](C)(CCC[C@@]4(C)C(=O)O)[C@@H]2CC[C@]1(O[C@@H]1O[C@H](CO)[C@@H](O)[C@H](O[C@@H]2O[C@H](CO)[C@@H](O)[C@H](O)[C@H]2O)[C@H]1O[C@@H]1O[C@H](CO)[C@@H](O)[C@H](O)[C@H]1O)C3` [Form 1, rebaudioside B], for which the “solubility in ethanol (in words)” value is given as “moderate” and the solubility in ethanol result was “about 8.3 mg/mL”. For the same molecule, for the setting “95% ethanol/5% water solution, organic solvent or mixture, 95% ethanol/5% water solution, read-out: solubility in a 95% ethanol/5% water solution”, the solubility is around 28 mg/mL (≈ 34.8 mM). Where the note is “ethanol/water mixture”, the “solubility in an ethanol/water mixture (in words)” value is “high”. The “solubility in water (in words)” value (water) is reported as “low”. For the same molecule, the solubility (water, water, water, read-out: solubility in water) is below 0.5 mg/mL.
